Results: PubChem BioAssay (NCI)
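Interpolation was linear, between the two tested concentrations surrounding the appropriate level; five concentrations were tested over 48 hours in 96-well plates. GI50 marks 50% less growth. TGI: total growth inhibition.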

Key:
Assay in all cases: NCI tumour cell line growth inhibition, 48 h
786-0 renal = test system: 786-0 renal
A498 renal = test system: A498 renal
A549 NSCLC = test system: A549 NSCLC
ACHN renal = test system: ACHN renal
BT-549 breast = test system: BT-549 breast
CAKI-1 renal = test system: CAKI-1 renal
CCRF-CEM leukemia = test system: CCRF-CEM leukemia
COLO 205 colon = test system: COLO 205 colon
DU-145 prostate = test system: DU-145 prostate
EKVX NSCLC = test system: EKVX NSCLC
HCC-2998 colon = test system: HCC-2998 colon
HCT-116 colon = test system: HCT-116 colon
HCT-15 colon = test system: HCT-15 colon
HL-60(TB) leukemia = test system: HL-60(TB) leukemia
HOP-62 NSCLC = test system: HOP-62 NSCLC
HOP-92 NSCLC = test system: HOP-92 NSCLC
HS 578T breast = test system: HS 578T breast
HT29 colon = test system: HT29 colon
IGROV1 ovarian = test system: IGROV1 ovarian
K-562 leukemia = test system: K-562 leukemia
KM12 colon = test system: KM12 colon
LOX IMVI melanoma = test system: LOX IMVI melanoma
M14 melanoma = test system: M14 melanoma
MALME-3M melanoma = test system: MALME-3M melanoma
MCF7 breast = test system: MCF7 breast
MDA-MB-231 breast = test system: MDA-MB-231 breast
MDA-MB-435 = test system: MDA-MB-435
MDA-MB-468 breast = test system: MDA-MB-468 breast
MOLT-4 leukemia = test system: MOLT-4 leukemia
NCI-H226 lung = test system: NCI-H226 lung
NCI-H23 lung = test system: NCI-H23 lung
NCI-H460 lung = test system: NCI-H460 lung
NCI-H522 lung = test system: NCI-H522 lung
NCI/ADR-RES ovarian = test system: NCI/ADR-RES ovarian
OVCAR-3 ovarian = test system: OVCAR-3 ovarian
OVCAR-4 ovarian = test system: OVCAR-4 ovarian
OVCAR-5 ovarian = test system: OVCAR-5 ovarian
OVCAR-8 ovarian = test system: OVCAR-8 ovarian
PC-3 prostate = test system: PC-3 prostate
RPMI-8226 leukemia = test system: RPMI-8226 leukemia
RXF 393 renal = test system: RXF 393 renal
SF-268 CNS = test system: SF-268 CNS
SF-295 CNS = test system: SF-295 CNS
SF-539 CNS = test system: SF-539 CNS
SK-MEL-2 melanoma = test system: SK-MEL-2 melanoma
SK-MEL-28 melanoma = test system: SK-MEL-28 melanoma
SK-MEL-5 melanoma = test system: SK-MEL-5 melanoma
SK-OV-3 ovarian = test system: SK-OV-3 ovarian
SN12C renal = test system: SN12C renal
SNB-19 CNS = test system: SNB-19 CNS
SNB-75 CNS = test system: SNB-75 CNS
SR leukemia = test system: SR leukemia
SW-620 colon = test system: SW-620 colon
T-47D breast = test system: T-47D breast
TK-10 renal = test system: TK-10 renal
U251 CNS = test system: U251 CNS
UACC-257 melanoma = test system: UACC-257 melanoma
UACC-62 melanoma = test system: UACC-62 melanoma
UO-31 renal = test system: UO-31 renal

Compound CC1(C)CC[C@]2(C(=O)O)CC[C@]3(C)C(=CCC4[C@@]5(C)C[C@@H](O)[C@@H]6OC(c7ccc(F)cc7)OC[C@@]6(C)C5CC[C@]43C)C2C1 (stereo partly drawn) has a GI50 (786-0 renal) of 7.56 µM, a TGI (786-0 renal) of 27.5 µM and a GI50 (A498 renal) of 5.41 µM. For the same compound, the TGI (A498 renal) was 20.1 µM, the GI50 (A549 NSCLC) was 2.81 µM and the TGI (A549 NSCLC) was 16.5 µM. The GI50 (ACHN renal) was 3.56 µM, the TGI (ACHN renal) was 32.5 µM and the GI50 (BT-549 breast) was 4.34 µM. The TGI (BT-549 breast) was 17.9 µM, the GI50 (CAKI-1 renal) was 9.28 µM and the TGI (CAKI-1 renal) was 26.3 µM. It also gave a GI50 (CCRF-CEM leukemia) of 3.58 µM, a TGI (CCRF-CEM leukemia) of 25.8 µM and a GI50 (COLO 205 colon) of 4.53 µM. For the same compound, the TGI (COLO 205 colon) was 17.9 µM, the GI50 (DU-145 prostate) was 5.23 µM and the TGI (DU-145 prostate) was over 100 µM. For the same compound, the GI50 (EKVX NSCLC) was 3.14 µM, the TGI (EKVX NSCLC) was 15.3 µM and the GI50 (HCC-2998 colon) was 4.34 µM. The TGI (HCC-2998 colon) was 14.8 µM, the GI50 (HCT-116 colon) was 3.5 µM and the TGI (HCT-116 colon) was 13.7 µM. The GI50 (HCT-15 colon) was 2.42 µM, the TGI (HCT-15 colon) was 11.6 µM and the GI50 (HL-60(TB) leukemia) was 2.29 µM. It also gave a TGI (HL-60(TB) leukemia) of 6.41 µM, a GI50 (HOP-62 NSCLC) of 6.68 µM and a TGI (HOP-62 NSCLC) of 29.6 µM. It also gave a GI50 (HOP-92 NSCLC) of 5.32 µM, a TGI (HOP-92 NSCLC) of 27.6 µM and a GI50 (HS 578T breast) of 5.56 µM. It also gave a TGI (HS 578T breast) of 48.5 µM, a GI50 (HT29 colon) of 5.09 µM and a TGI (HT29 colon) of 30.3 µM. The GI50 (IGROV1 ovarian) was 7.62 µM, the TGI (IGROV1 ovarian) was 24.9 µM and the GI50 (K-562 leukemia) was 2.26 µM. For the same compound, the TGI (K-562 leukemia) was over 100 µM, the GI50 (KM12 colon) was 4.2 µM and the TGI (KM12 colon) was 18.9 µM. For the same compound, the GI50 (LOX IMVI melanoma) was 4.13 µM, the TGI (LOX IMVI melanoma) was 16.2 µM and the GI50 (M14 melanoma) was 10.7 µM. The TGI (M14 melanoma) was 27 µM, the GI50 (MALME-3M melanoma) was 8.39 µM and the TGI (MALME-3M melanoma) was 22.9 µM. It also gave a GI50 (MCF7 breast) of 4.03 µM, a TGI (MCF7 breast) of 28.2 µM and a GI50 (MDA-MB-231 breast) of 13 µM. For the same compound, the TGI (MDA-MB-231 breast) was 28.7 µM, the GI50 (MDA-MB-435) was 10.8 µM and the TGI (MDA-MB-435) was 23.7 µM. For the same compound, the GI50 (MDA-MB-468 breast) was 3.26 µM, the TGI (MDA-MB-468 breast) was 19.5 µM and the GI50 (MOLT-4 leukemia) was 2.64 µM. For the same compound, the TGI (MOLT-4 leukemia) was 12 µM, the GI50 (NCI-H226 lung) was 3.96 µM and the TGI (NCI-H226 lung) was 23.5 µM. The GI50 (NCI-H23 lung) was 4.95 µM, the TGI (NCI-H23 lung) was 21.1 µM and the GI50 (NCI-H460 lung) was 4.38 µM. For the same compound, the TGI (NCI-H460 lung) was 18.1 µM, the GI50 (NCI-H522 lung) was 5.21 µM and the TGI (NCI-H522 lung) was 23.8 µM. For the same compound, the GI50 (NCI/ADR-RES ovarian) was 4.3 µM, the TGI (NCI/ADR-RES ovarian) was 22.8 µM and the GI50 (OVCAR-3 ovarian) was 4.13 µM. For the same compound, the TGI (OVCAR-3 ovarian) was 18.8 µM, the GI50 (OVCAR-4 ovarian) was 5.63 µM and the TGI (OVCAR-4 ovarian) was 38.4 µM. It also gave a GI50 (OVCAR-5 ovarian) of 13.3 µM, a TGI (OVCAR-5 ovarian) of 33.5 µM and a GI50 (OVCAR-8 ovarian) of 6.96 µM. The TGI (OVCAR-8 ovarian) was 40.2 µM, the GI50 (PC-3 prostate) was 4.18 µM and the TGI (PC-3 prostate) was over 100 µM. For the same compound, the GI50 (RPMI-8226 leukemia) was 4.35 µM, the TGI (RPMI-8226 leukemia) was over 100 µM and the GI50 (RXF 393 renal) was 6.66 µM. It also gave a TGI (RXF 393 renal) of 20.5 µM, a GI50 (SF-268 CNS) of 5.3 µM and a TGI (SF-268 CNS) of over 100 µM. For the same compound, the GI50 (SF-295 CNS) was 3.57 µM, the TGI (SF-295 CNS) was 15.9 µM and the GI50 (SF-539 CNS) was 6.71 µM. The TGI (SF-539 CNS) was 21.3 µM, the GI50 (SK-MEL-2 melanoma) was 9.47 µM and the TGI (SK-MEL-2 melanoma) was 24.2 µM. For the same compound, the GI50 (SK-MEL-28 melanoma) was 12.5 µM, the TGI (SK-MEL-28 melanoma) was 25.4 µM and the GI50 (SK-MEL-5 melanoma) was 4.13 µM. It also gave a TGI (SK-MEL-5 melanoma) of 16.2 µM, a GI50 (SK-OV-3 ovarian) of 11.6 µM and a TGI (SK-OV-3 ovarian) of 39.2 µM. For the same compound, the GI50 (SN12C renal) was 7.55 µM, the TGI (SN12C renal) was 30.2 µM and the GI50 (SNB-19 CNS) was 7.35 µM. For the same compound, the TGI (SNB-19 CNS) was over 100 µM, the GI50 (SNB-75 CNS) was 2.05 µM and the TGI (SNB-75 CNS) was 45.3 µM. For the same compound, the GI50 (SR leukemia) was 4.18 µM, the TGI (SR leukemia) was 37 µM and the GI50 (SW-620 colon) was 6.54 µM. It also gave a TGI (SW-620 colon) of 30.3 µM, a GI50 (T-47D breast) of 11.8 µM and a TGI (T-47D breast) of 95.9 µM. The GI50 (TK-10 renal) was 10.1 µM, the TGI (TK-10 renal) was over 100 µM and the GI50 (U251 CNS) was 3.54 µM. The TGI (U251 CNS) was 17 µM, the GI50 (UACC-257 melanoma) was 10.9 µM and the TGI (UACC-257 melanoma) was 31 µM. The GI50 (UACC-62 melanoma) was 11.4 µM, the TGI (UACC-62 melanoma) was 24.3 µM and the GI50 (UO-31 renal) was 4.17 µM. For the same compound, the TGI (UO-31 renal) was 21.7 µM.
